In patent US12655460B2, “Rapid antimicrobial susceptibility testing by image analysis” (Beth Israel Deaconess Medical Center, Inc., priority 2019, dated 2026):
Values after ≈ are worked out from the molar mass of the structure shown.

How the values were obtained:
E. coli = assay: Rapid antimicrobial susceptibility testing (MIC) by flatbed-scanner imaging of doubling dilutions in a well plate, gentamicin; type: cell-based; design: unit not given here; settings: 37° C.
Excerpt: (§1) The dispensing technology may use well plate 205, which may be a standard 96-, 384-, or 1536-well microtiter plate. Well plate 205 contains doubling dilutions of antimicrobials. Any antimicrobials can be used. Antibiotics are mentioned as an example of an antimicrobial, but any antimicrobial or other treatment agent (e.g. antifungal, antiviral, anti-parasitic) can be used unless context clearly dictates otherwise. The doubling dilution series can be prepared at the time of use, or plates with doubling dilutions can be pre-made and stored with lyophilized antibiotics or with antibiotics in broth that are frozen and thawed before use. In embodiments, 50 μl of broth are added to wells in well plate 205 and desired two-fold dilutions of antibiotics are added to wells using inkjet printing technology 210 as described in WO 2017/218202 A1, the entire contents of which are incorporated by reference for all purposes. In other embodiments, antibiotics can be added either manually or with any of several suitable liquid handling devices. Positive blood culture broth is then added to the microtiter wells. The positive blood culture broth or dilutions of the positive blood culture broth can be added to the wells using any of several liquid handling devices or manually or through use of an inkjet printer 210 which we determined can quantitatively print out positive blood culture broth.
(§2) Typically positive blood-culture broth has organisms at 5×10^9 colony-forming units per mL. In our experiments, we determined that this could be diluted 5-fold in sterile water and 0.3% tween-20 and this dilution dispensed at 250 nl per well to create a starting inoculum of approximately 2.5×10^7 per mL in wells in a 384 well plate containing a volume of 10 μl. […]
We have made use of a CCD flatbed scanner to scan plates. In our example, the plates are incubated in a separate incubator and placed on a plate bed scanner at different time points for reading. Using a flatbed scanner, we have determined that accurate AST results can be obtained with incubation times of 1.5 hours or less. […]

[1] = Rapid antimicrobial susceptibility testing (MIC) by flatbed-scanner imaging of doubling dilutions in a well plate, cefepime; type: cell-based
Excerpt: as §1, with “In embodiments, 50 μl of broth are added to wells in well plate 205 and desired two-fold dilutions of antibiotics are added to wells using inkjet printing technology 210 as described in WO 2017/218202 A1, the entire contents of which are incorporated by reference for all purposes. In other embodiments, antibiotics can be added either manually or with any of several suitable liquid handling devices. Positive blood culture broth is then added to the microtiter wells.” left out
as §2

With gentamicin the MIC (E. coli; 2 hours of incubation (graph 520)) was 1.0, the MIC (E. coli; 3 hours of incubation (graph 530)) was 1.0 and the MIC (E. coli; 4 hours of incubation (graph 540)) was 1.0.
In the case of `CO/N=C(\C(=O)N[C@@H]1C(=O)N2C(C(=O)[O-])=C(C[N+]3(C)CCCC3)CS[C@H]12)c1csc(N)n1` [cefepime], the MIC ([1]; 3 hours of incubation (graph 630)) is reported as 31 µg/mL (≈ 64.5 µM) and the MIC ([1]; 4 hours of incubation (graph 640)) is reported as 31 µg/mL (≈ 64.5 µM).
